Earlier results on 1 compound are cited in patent US6977253B2, “Methods for the treatment of bipolar disorder using carbamazepine” (Shire Pharmaceutical Development Inc., priority 2003, dated 2005).

Structures are written as SMILES.

This series concerns acute mania. The conditions noted are these: controlled carbamazepine monotherapy trials in acute mania; McElroy and Keck 2000.

For the compound `NC(=O)N1c2ccccc2C=Cc2ccccc21` [carbamazepine, 5-carbamoyl-5H-dibenz(b,f)azepine], the Pooled response rate is recorded as 52%.
